Experimental data: patent US20130059783A1, “COMPOSITIONS AND METHODS FOR EXPANDING BFU-E CELLS” (priority 2010, published 2013)

System: mRNA expression in BFU-E cells
Test: mRNA-Seq of BFU-E cells cultured 4 hours with or without Dex (Table S3)
Assay type: cell-based, mouse
Conditions: for Expression level log2((100 nM DEX)* (0 nM DEX)) / Expression of mRNA in BFU-E after 4 h 100 nM DEX (RPKM) / Expression change log2 ((100 nM DEX)/(0 nM DEX))2 / Expression change log2 ((100 nM DEX)/(0 nM DEX)): BFU-E, 4 h; for Expression change log2 ((100 nM DEX)/(0 nM DEX)): 100 nM vs 0 nM DEX
Source text: FIGS. 2A-2B. The effect of glucocorticoids on miRNA and mRNA expression in BFU-E cells determined by next generation sequencing. […] Both mRNAs and miRNAs were subjected to Illumina deep sequencing. […] (B) A plot similar to that in A for expression of individual mRNAs. mRNA expression was normalized using the RPKM method, which determines the relative expression of each gene to all expressed genes by giving each gene an RPKM count (number of uniquely aligning reads per kb exon per million total reads). […]
To minimize the risk of false positive GC target genes we chose to compare only highly expressed genes (≈10,000 genes with a multiplied RPKM count >4) (Mortazavi et al., 2008).
Samples for Paired-End mRNA-Seq were prepared using the Solexa kit according to the manufacturer's instructions with the exception that we extracted 300 bp bands, before and after the PCR step (Illumina). Images acquired from the Solexa sequencer were processed through the bundled Solexa image extraction pipeline version 1.4. mRNA-Seq reads were aligned to mouse NCBI build 37 (mm9) using ELAND, Briefly, the first 32 bases of a read were used as a seed. Each matched seed was then extended up to 36 bases and scored to break any ties between multi-matches. For mRNA expression counts, unique reads in the genome that landed within any exons of NCBI gene models (v37.1) were counted. The counts were normalized by the mRNA length to get the final RPKM values (i.e. reads per KB per million reads).

C[C@@H]1C[C@H]2[C@@H]3CCC4=CC(=O)C=C[C@]4(C)[C@@]3(F)[C@@H](O)C[C@]2(C)[C@@]1(O)C(=O)CO [Dex, dexamethasone]
Expression level log2((100 nM DEX)* (0 nM DEX)) (gene Kit): 12.13 | Expression of mRNA in BFU-E after 4 h 100 nM DEX (RPKM) (gene Kit): 97.02 RPKM | Expression level log2((100 nM DEX)* (0 nM DEX)) (gene Klf9): 4.86 | Expression of mRNA in BFU-E after 4 h 100 nM DEX (RPKM) (gene Klf9): 8.07 RPKM | Expression change log2 ((100 nM DEX)/(0 nM DEX))2 (gene Klf13): 1.37 | Expression level log2((100 nM DEX)* (0 nM DEX)) (gene Klf13): 8.41 | Expression of mRNA in BFU-E after 4 h 100 nM DEX (RPKM) (gene Klf13): 29.57 RPKM | Expression of mRNA in BFU-E after 4 h 100 nM DEX (RPKM) (gene Lama5): 3.90 RPKM | Expression change log2 ((100 nM DEX)/(0 nM DEX))2 (gene Lrfn1): 1.05 | Expression level log2((100 nM DEX)* (0 nM DEX)) (gene Lrfn1): 2.45 | Expression of mRNA in BFU-E after 4 h 100 nM DEX (RPKM) (gene Lrfn1): 3.37 RPKM | Expression of mRNA in BFU-E after 4 h 100 nM DEX (RPKM) (gene Maff): 6.11 RPKM | Expression change log2 ((100 nM DEX)/(0 nM DEX)) (gene Maff): 2.58 | Expression level log2((100 nM DEX)* (0 nM DEX)) (gene Man2a2): 9.07 | Expression of mRNA in BFU-E after 4 h 100 nM DEX (RPKM) (gene Man2a2): 35.22 RPKM | Expression level log2((100 nM DEX)* (0 nM DEX)) (gene Mobkl2c): 5.14 | Expression of mRNA in BFU-E after 4 h 100 nM DEX (RPKM) (gene Mobkl2c): 8.65 RPKM | Expression of mRNA in BFU-E after 4 h 100 nM DEX (RPKM) (gene Mt2): 1306.42 RPKM | Expression change log2 ((100 nM DEX)/(0 nM DEX))2 (gene Nags): 1.02 | Expression level log2((100 nM DEX)* (0 nM DEX)) (gene Nags): 2.04 | Expression of mRNA in BFU-E after 4 h 100 nM DEX (RPKM) (gene Nags): 2.88 RPKM | Expression of mRNA in BFU-E after 4 h 100 nM DEX (RPKM) (gene Ncoa7): 7.54 RPKM | Expression change log2 ((100 nM DEX)/(0 nM DEX))2 (gene Nfkbia): 1.36 | Expression level log2((100 nM DEX)* (0 nM DEX)) (gene Nfkbia): 4.55 | Expression of mRNA in BFU-E after 4 h 100 nM DEX (RPKM) (gene Nfkbia): 7.75 RPKM | Expression of mRNA in BFU-E after 4 h 100 nM DEX (RPKM) (gene Nhej1): 4.51 RPKM | Expression level log2((100 nM DEX)* (0 nM DEX)) (gene Nrgn): 7.68 | Expression of mRNA in BFU-E after 4 h 100 nM DEX (RPKM) (gene Nrgn): 21.01 RPKM | Expression of mRNA in BFU-E after 4 h 100 nM DEX (RPKM) (gene Per1): 23.34 RPKM | Expression change log2 ((100 nM DEX)/(0 nM DEX)) (gene Per1): 2.30 | Expression of mRNA in BFU-E after 4 h 100 nM DEX (RPKM) (gene Pex11a): 5.87 RPKM | Expression of mRNA in BFU-E after 4 h 100 nM DEX (RPKM) (gene Pfkfb4): 12.25 RPKM | Expression change log2 ((100 nM DEX)/(0 nM DEX)) (gene Pfkfb4): 2.47 | Expression level log2((100 nM DEX)* (0 nM DEX)) (gene Pld6): 2.64 | Expression of mRNA in BFU-E after 4 h 100 nM DEX (RPKM) (gene Pld6): 3.65 RPKM | Expression of mRNA in BFU-E after 4 h 100 nM DEX (RPKM) (gene Plk3): 5.75 RPKM | Expression change log2 ((100 nM DEX)/(0 nM DEX)) (gene Plk3): 1.76 | Expression level log2((100 nM DEX)* (0 nM DEX)) (gene Polr3gl): 3.89 | Expression of mRNA in BFU-E after 4 h 100 nM DEX (RPKM) (gene Polr3gl): 5.93 RPKM | Expression level log2((100 nM DEX)* (0 nM DEX)) (gene Rab3il1): 3.44 | Expression of mRNA in BFU-E after 4 h 100 nM DEX (RPKM) (gene Rab3il1): 4.94 RPKM | Expression level log2((100 nM DEX)* (0 nM DEX)) (gene Rapgef2): 2.18 | Expression of mRNA in BFU-E after 4 h 100 nM DEX (RPKM) (gene Rapgef2): 3.28 RPKM | Expression of mRNA in BFU-E after 4 h 100 nM DEX (RPKM) (gene Rcsd1): 8.11 RPKM | Expression change log2 ((100 nM DEX)/(0 nM DEX)) (gene Rcsd1): 1.68 | Expression level log2((100 nM DEX)* (0 nM DEX)) (gene Rps6ka1): 9.31 | Expression of mRNA in BFU-E after 4 h 100 nM DEX (RPKM) (gene Rps6ka1): 39.02 RPKM | Expression of mRNA in BFU-E after 4 h 100 nM DEX (RPKM) (gene Serpina3g): 36.06 RPKM | Expression change log2 ((100 nM DEX)/(0 nM DEX)) (gene Serpina3g): 2.06 | Expression of mRNA in BFU-E after 4 h 100 nM DEX (RPKM) (gene Slc30a10): 7.11 RPKM | Expression level log2((100 nM DEX)* (0 nM DEX)) (gene Slc44a2): 9.19 | Expression of mRNA in BFU-E after 4 h 100 nM DEX (RPKM) (gene Slc44a2): 35.91 RPKM | Expression of mRNA in BFU-E after 4 h 100 nM DEX (RPKM) (gene Socs1): 34.03 RPKM | Expression change log2 ((100 nM DEX)/(0 nM DEX)) (gene Socs1): 2.74 | Expression level log2((100 nM DEX)* (0 nM DEX)) (gene Spry1): 5.36 | Expression of mRNA in BFU-E after 4 h 100 nM DEX (RPKM) (gene Spry1): 9.31 RPKM | Expression of mRNA in BFU-E after 4 h 100 nM DEX (RPKM) (gene St3gal2): 23.29 RPKM | Expression of mRNA in BFU-E after 4 h 100 nM DEX (RPKM) (gene Syne1): 7.36 RPKM | Expression change log2 ((100 nM DEX)/(0 nM DEX))2 (gene Tle4): 1.29 | Expression level log2((100 nM DEX)* (0 nM DEX)) (gene Tle4): 6.76 | Expression of mRNA in BFU-E after 4 h 100 nM DEX (RPKM) (gene Tle4): 16.27 RPKM | Expression of mRNA in BFU-E after 4 h 100 nM DEX (RPKM) (gene Tns1): 20.01 RPKM | Expression of mRNA in BFU-E after 4 h 100 nM DEX (RPKM) (gene Tph1): 5.51 RPKM | Expression level log2((100 nM DEX)* (0 nM DEX)) (gene Trib2): 4.11 | Expression of mRNA in BFU-E after 4 h 100 nM DEX (RPKM) (gene Trib2): 6.12 RPKM | Expression of mRNA in BFU-E after 4 h 100 nM DEX (RPKM) (gene Tsc22d3): 19.83 RPKM | Expression level log2((100 nM DEX)* (0 nM DEX)) (gene Txnip): 8.13 | Expression of mRNA in BFU-E after 4 h 100 nM DEX (RPKM) (gene Txnip): 24.97 RPKM | Expression of mRNA in BFU-E after 4 h 100 nM DEX (RPKM) (gene Wdr21): 48.20 RPKM | Expression change log2 ((100 nM DEX)/(0 nM DEX))2 (gene Wdr60): 1.05 | Expression level log2((100 nM DEX)* (0 nM DEX)) (gene Wdr60): 5.00 | Expression of mRNA in BFU-E after 4 h 100 nM DEX (RPKM) (gene Wdr60): 8.14 RPKM | Expression change log2 ((100 nM DEX)/(0 nM DEX))2 (gene Zbtb16): 1.30 | Expression level log2((100 nM DEX)* (0 nM DEX)) (gene Zbtb16): 3.93 | Expression of mRNA in BFU-E after 4 h 100 nM DEX (RPKM) (gene Zbtb16): 6.14 RPKM | Expression of mRNA in BFU-E after 4 h 100 nM DEX (RPKM) (gene Zfp1): 5.67 RPKM | Expression change log2 ((100 nM DEX)/(0 nM DEX)) (gene Zfp1): 2.96 | Expression level log2((100 nM DEX)* (0 nM DEX)) (gene Zfp36l2): 13.36 | Expression of mRNA in BFU-E after 4 h 100 nM DEX (RPKM) (gene Zfp36l2): 163.74 RPKM | Genes upregulated 50% or more (multiplied RPKM count greater than zero): 395 genes
